Reference: US12281125B2, “Rapamycin derivatives” (NOVARTIS AG, priority 2018, dated 2025)

system: mTORc1 signaling, pS6 (Ser240/244) in MEF TSCl−/− cells; experiment: Cell-based assay for rapalog potency (pS6) in MEF TSCl−/− cells; conditions: Mus musculus, 2 hours treatment, average from multiple assays
Method: Rapalog potency was determined using MEF TSCl−/− cell based assay. MEF TSCl−/− cells are Mouse Embryonic Fibroblasts deficient in Tuberous sclerosis protein—TSCl, which negatively regulates mTORc1 signaling and thus display constitutive mTORc1 activation, resulting in phosphorylation (activation) of downstream molecules. This cell-based assay is used to measure inhibition (de-phosphorylation) of S6 and 4EBP1 by rapalogs or other mTOR inhibitors.
MEF TSCl−/− cells were plated on Poly-D-lysine coated 384 well Griener clear bottom plates and incubated overnight at 37° C., 5% CO2. On the following day, cells were washed 8 times with “Hard starve” solution (1 L DPBS+1 g D-(+) glucose+10 ml of 7.5% Sodium Bicarbonate+20 ml of 1M HEPES) and incubated for further 2 hours in the same solution. Cells were next treated with compounds with decreasing concentrations (8 points at 3.16 fold dilutions) and incubated for 2 hours at 37° C., 5% CO2. Cells were fixed with 4% paraformaldehyde for 30 min and washed 5 times with TBS-EDTA followed by immuno-staining with fluorescent tag labeled antibodies for pS6 (Ser240/244) (Cell Signaling #9468) and p4EBP1 (Thr 37/46) (Cell Signaling #5123). Nuclei were visualized with Hoechst (ThermoFisher Scientific #H3570) staining. Cells were imaged (InCell 600) using respective fluorescence channels and the potency of mTOR inhibitors was defined by pS6 IC50 (nM).
In vitro potency of mTOR inhibitors was defined by pS6 IC50 (nM) in MEF TSCl−/− cells.
IC50 values are calculated as the average from multiple assays.

Structure (SMILES)	IC50
CO[C@@H]1C[C@H](C[C@@H](C)[C@@H]2CC[C@H](C)/C=C(\C)[C@@H](O)[C@@H](OC)C(=O)[C@H](C)C[C@H](C)/C=C/C=C/C=C(\C)[C@@H](NCCS(=O)(=O)O)C[C@@H]3CC[C@@H](C)[C@@](O)(O3)C(=O)C(=O)N3CCCC[C@H]3C(=O)O2)CC[C@H]1O [Compound 38]	> 500 nM
CO[C@@H]1C[C@H](C[C@@H](C)[C@@H]2CC[C@H](C)/C=C(\C)[C@@H](O)[C@@H](OC)C(=O)[C@H](C)C[C@H](C)/C=C/C=C/C=C(\C)[C@H](NCCS(=O)(=O)O)C[C@@H]3CC[C@@H](C)[C@@](O)(O3)C(=O)C(=O)N3CCCC[C@H]3C(=O)O2)CC[C@H]1O [Compound 39]	> 500 nM
CO[C@@H]1C[C@H](C[C@@H](C)[C@@H]2CC[C@H](C)/C=C(\C)[C@@H](O)[C@@H](OC)C(=O)[C@H](C)C[C@H](C)/C=C/C=C/C=C(\C)[C@H](NCCS(=O)(=O)O)C[C@@H]3CC[C@@H](C)[C@@](O)(O3)C(=O)C(=O)N3CCCC[C@H]3C(=O)O2)CC[C@H]1OCCO [Compound 41]	33 nM

Other lines, results leading:

IC50	Structure (SMILES)
160 nM	CO[C@@H]1C[C@H](C[C@@H](C)[C@@H]2CC[C@H](C)/C=C(\C)[C@@H](O)[C@@H](OC)C(=O)[C@H](C)C[C@H](C)/C=C/C=C/C=C(\C)[C@@H](NCCS(=O)(=O)O)C[C@@H]3CC[C@@H](C)[C@@](O)(O3)C(=O)C(=O)N3CCCC[C@H]3C(=O)O2)CC[C@H]1OCCO [Compound 40]
0.18 nM	CO[C@@H]1C[C@H](C[C@@H](C)[C@@H]2CC[C@H](C)/C=C(\C)[C@@H](O)[C@@H](OC)C(=O)[C@H](C)C[C@H](C)/C=C/C=C/C=C(\C)C(NC(=O)OC(C)(C)C)C[C@@H]3CC[C@@H](C)[C@@](O)(O3)C(=O)C(=O)N3CCCC[C@H]3C(=O)O2)CC[C@H]1O (some centres unmarked) [Intermediate 8]
